Results: patent US10966426B2, “Herbicidal compositions comprising phenylpyrimidines” (BASF SE, priority 2016, dated 2021)
Values joined by “and” are separate entries in the source; they are usually repeats but may differ in a detail not shown here. Equal entries are not always repeated.

Experiments:
Assay type in all cases: in vivo
Alopecurus myosuroides = experiment: greenhouse post-emergence treatment, ALOMY; settings: ALOMY
Procedure, shortened: (§1)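 Pot trial in loamy sand with about 3.0% humus; plants sown in place or transplanted as seedlings a few days before treatment, kept at 10-25° C or 20-35° C by species, water as solvent. Damage scored 0 (none) to 100 (full destruction) over 2 to 4 weeks; combination expectation by Colby, E=X+Y−(X·Y/100).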

Ambrosia elatior = experiment: greenhouse pre-emergence treatment, AMBEL; settings: AMBEL
Procedure, shortened: (§2)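 Damage rated on 0 to 100 scale (0 = normal growth, 100 = no emergence or total above-ground kill) after 2-4 weeks at species-dependent 10-25° C or 20-35° C. Seeds sown per species in loamy sand, ~3.0% humus, treated right after sowing with aqueous spray of single actives or 10% emulsion-concentrate mixtures, then hooded; additive expectation by Colby.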

Lolium multiflorum = experiment: greenhouse post-emergence treatment, LOLMU; settings: LOLMU
Procedure, shortened: as §1

Polygonum convolvulus = experiment: greenhouse post-emergence treatment, POLCO; settings: POLCO, solo Ex. 5 62.5 gai/ha
Procedure, shortened: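 Foliar application to greenhouse-grown plants 3–15 cm tall in humus-containing loamy sand; response assessed on a 0–100 scale after 2–4 weeks, with Colby's E=X+Y−(X·Y/100) as the additive expectation.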

Avena fatua [1] = experiment: greenhouse post-emergence treatment, AVEFA; settings: AVEFA
Procedure, shortened: as §1

Avena fatua [2] = experiment: greenhouse pre-emergence treatment, AVEFA; settings: AVEFA
Procedure, shortened: as §2

[3] = solo Ex. 5 15 gai/ha, 20 DAT, 2nd series of rows
[4] = solo Ex. 5 62.5 gai/ha, 20 DAT, 2nd series of rows
[5] = solo Ex. 5 250 gai/ha, 20 DAT, 2nd series of rows
[6] = solo Ex. 5 500 gai/ha, 20 DAT, 2nd series of rows
[7] = Table X12, 20 DAT, solo Ex. 5 31.25 gai/ha
[8] = Table X12, 20 DAT, solo Ex. 5 62.5 gai/ha
[9] = Table X12, 20 DAT, solo Ex. 5 125 gai/ha
[10] = Ex. 5 solo, 62.5 gai/ha, 20 DAT

## O=C(O)c1nc(C2CC2)ncc1-c1ccccc1Cl [Ex. 5]
Alopecurus myosuroides; 62.5 gai/ha, 20 DAT, Table X3
  % activity, solo application: 75%
Alopecurus myosuroides; 125 gai/ha, 20 DAT, Table X7
  % activity, solo application: 80%
Alopecurus myosuroides; 250 gai/ha, 20 DAT, Table X5
  % activity, solo application: 85%
Alopecurus myosuroides; 250 gai/ha, 20 DAT, Table X7
  % activity, solo application: 75%
Alopecurus myosuroides; [3]
  % activity: 80%
Alopecurus myosuroides; solo Ex. 5 62.5 gai/ha, 20 DAT
  % activity: 70% and 68%
Alopecurus myosuroides; [4]
  % activity: 70%
Alopecurus myosuroides; solo Ex. 5 125 gai/ha, 20 DAT
  % activity: 70%
Alopecurus myosuroides; solo Ex. 5 250 gai/ha, 20 DAT
  % activity: 73%
Alopecurus myosuroides; [5]
  % activity: 80%
Alopecurus myosuroides; solo Ex. 5 250 gai/ha, 21 DAT
  % activity: 80%
Alopecurus myosuroides; solo Ex. 5 500 gai/ha, 20 DAT
  % activity: 78%
Alopecurus myosuroides; [6]
  % activity: 80%
Alopecurus myosuroides; [7]
  % activity: 70%
Alopecurus myosuroides; [8]
  % activity: 70%
Alopecurus myosuroides; [9]
  % activity: 80%
Alopecurus myosuroides; solo, 62.5 gai/ha, 20 DAT
  % activity: 75%
Alopecurus myosuroides; solo, 125 gai/ha, 20 DAT
  % activity: 80% and 75%
Alopecurus myosuroides; solo, 250 gai/ha, 20 DAT
  % activity: 80%
Ambrosia elatior; 31.25 gai/ha, 20 DAT, Table X1
  % activity, solo application: 30%
Ambrosia elatior; 62.5 gai/ha, 20 DAT, Table X1
  % activity, solo application: 45%
Ambrosia elatior; 62.5 gai/ha, 20 DAT, Table X2
  % activity, solo application: 0%
Ambrosia elatior; 62.5 gai/ha, 20 DAT, Table X6
  % activity, solo application: 0%
Ambrosia elatior; 250 gai/ha, 20 DAT, Table X1
  % activity, solo application: 98%
Ambrosia elatior; 20 DAT, solo Ex. 5 31.25 gai/ha
  % activity: 10%
Ambrosia elatior; 20 DAT, solo Ex. 5 31.25 gai/ha (Table X70)
  % activity: 20%
Ambrosia elatior; 20 DAT, solo Ex. 5 62.5 gai/ha
  % activity: 70%
Ambrosia elatior; 20 DAT, solo Ex. 5 125 gai/ha
  % activity: 85%
Ambrosia elatior; [10]
  % activity: 70%
Ambrosia elatior; Table X10, 20 DAT, solo Ex. 5 31.25 gai/ha
  % activity: 30%
Ambrosia elatior; Table X10, 20 DAT, solo Ex. 5 62.5 gai/ha
  % activity: 45%
Ambrosia elatior; Table X11, 20 DAT, solo Ex. 5 62.5 gai/ha
  % activity: 45%
Ambrosia elatior; solo, 62.5 gai/ha, 20 DAT
  % activity: 70%
Ambrosia elatior; solo, 125 gai/ha, 21 DAT
  % activity: 70%
Lolium multiflorum; 125 gai/ha, 20 DAT, Table X4
  % activity, solo application: 80%
Lolium multiflorum; 125 gai/ha, 20 DAT, Table X5
  % activity, solo application: 80%
Lolium multiflorum; 250 gai/ha, 20 DAT, Table X4
  % activity, solo application: 80%
Lolium multiflorum; 21 DAT, solo Ex. 5 125 gai/ha
  % activity: 85%
Lolium multiflorum; 21 DAT, solo Ex. 5 250 gai/ha
  % activity: 85%
Lolium multiflorum; [3]
  % activity: 85%
Lolium multiflorum; solo Ex. 5 62.5 gai/ha, 20 DAT
  % activity: 80%
Lolium multiflorum; [4]
  % activity: 80%
Lolium multiflorum; solo Ex. 5 125 gai/ha, 20 DAT
  % activity: 80% and 83%
Lolium multiflorum; solo Ex. 5 250 gai/ha, 20 DAT
  % activity: 85%
Lolium multiflorum; [5]
  % activity: 85%
Lolium multiflorum; solo Ex. 5 250 gai/ha, 21 DAT
  % activity: 80%
Lolium multiflorum; solo Ex. 5 500 gai/ha, 20 DAT
  % activity: 85%
Lolium multiflorum; [6]
  % activity: 85%
Lolium multiflorum; Table X8, 20 DAT, solo Ex. 5 125 gai/ha
  % activity: 85%
Lolium multiflorum; [9]
  % activity: 85%
Lolium multiflorum; solo, 62.5 gai/ha, 20 DAT
  % activity: 75%
Lolium multiflorum; solo, 125 gai/ha, 20 DAT
  % activity: 80% and 50%
Lolium multiflorum; solo, 250 gai/ha, 20 DAT
  % activity: 80%
Polygonum convolvulus; 20 DAT
  % activity: 60%
Polygonum convolvulus; 21 DAT
  % activity: 90%
Avena fatua [1]; 125 gai/ha, 20 DAT, Table X4
  % activity, solo application: 75%
Avena fatua [1]; 125 gai/ha, 20 DAT, Table X5
  % activity, solo application: 70%
Avena fatua [1]; 250 gai/ha, 20 DAT, Table X5
  % activity, solo application: 75%
Avena fatua [1]; 20 DAT, solo Ex. 5 125 gai/ha
  % activity: 85%
Avena fatua [1]; 20 DAT, solo Ex. 5 250 gai/ha
  % activity: 85%
Avena fatua [1]; solo Ex. 5 62.5 gai/ha, 20 DAT
  % activity: 68%
Avena fatua [1]; [4]
  % activity: 75%
Avena fatua [1]; solo Ex. 5 125 gai/ha, 20 DAT
  % activity: 70%
Avena fatua [1]; solo Ex. 5 250 gai/ha, 20 DAT
  % activity: 75% and 70%
Avena fatua [1]; solo Ex. 5 500 gai/ha, 20 DAT
  % activity: 75%
Avena fatua [1]; Ex. 5 solo, 62.5 gai/ha, 21 DAT
  % activity: 80%
Avena fatua [1]; Ex. 5 solo, 125 gai/ha, 21 DAT
  % activity: 80%
Avena fatua [1]; Ex. 5 solo, 250 gai/ha, 21 DAT
  % activity: 85%
Avena fatua [1]; [7]
  % activity: 70%
Avena fatua [1]; [8]
  % activity: 75% and 80%
Avena fatua [1]; [9]
  % activity: 85%
Avena fatua [1]; Table X12, 20 DAT, solo Ex. 5 250 gai/ha
  % activity: 90%
Avena fatua [1]; solo, 62.5 gai/ha, 20 DAT
  % activity: 70% and 55%
Avena fatua [1]; solo, 125 gai/ha, 20 DAT
  % activity: 75% and 80% and 60%
Avena fatua [1]; solo, 250 gai/ha, 20 DAT
  % activity: 80%
Avena fatua [2]; 250 gai/ha, 20 DAT, Table X1
  % activity, solo application: 90%
Avena fatua [2]; 20 DAT, solo Ex. 5 62.5 gai/ha
  % activity: 75%
Avena fatua [2]; solo Ex. 5 125 gai/ha, 20 DAT
  % activity: 90%
Avena fatua [2]; [10]
  % activity: 75%
Avena fatua [2]; Ex. 5 solo, 125 gai/ha, 20 DAT
  % activity: 90%
Avena fatua [2]; Table X9, 21 DAT, solo Ex. 5 250 gai/ha
  % activity: 90%
Avena fatua [2]; Table X13, 20 DAT, solo Ex. 5 31.25 gai/ha
  % activity: 65%
